Measurements: PubChem BioAssay AID270 (DTP/NCI, 2004)
Several values for one entry are separate records, joined by “and”; a condition that tells them apart may be missing. Equal values may be shown once. Records with an inconclusive call do not appear.

System: BDF1 mice, s.c. Lewis lung carcinoma, T/C %
Assay: NCI In Vivo Anticancer Drug Screen. Data for tumor model Lewis Lung Carcinoma (subcutaneous) in B6D2F1 (BDF1) mice
Method in brief: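 Transplanted tumors grown in mice; compound vs vehicle dosing; endpoint survival or tumor size; ratio T/C.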

[N-]=[N+]=CC(=O)CCC(N)C(=O)O (centres undefined)
T/C (endpoint: median survival time, dose: 0.1 mg/kg/injection, schedule: Q01DX009 (ip), vehicle: saline, higher = longer survival): 121 % of control | T/C (endpoint: median survival time, dose: 0.2 mg/kg/injection, schedule: Q01DX009 (ip), vehicle: saline, higher = longer survival): 110 % of control | T/C (endpoint: median survival time, dose: 94.0 mg/kg/injection, schedule: Q01DX001 (ip), vehicle: saline, higher = longer survival): 120 % of control | T/C (endpoint: median survival time, dose: 210.0 mg/kg/injection, schedule: Q01DX001 (ip), vehicle: saline, higher = longer survival): 107 % of control

CC1CN=C(C(=O)C(C)C2CCC3C4CC=C5CC(O)CCC5(C)C4CCC23C)C1 (centres undefined)
T/C (endpoint: mean tumor weight, dose: 100.0 mg/kg/injection, schedule: Q01DX011 (sc), vehicle: steriod suspending solution, higher = larger tumour): 118 % of control

C=C(C)C(=O)O[C@H]1CC2=C[C@@H](C[C@@]3(C)O[C@@H]3[C@H]3OC(=O)C(=C)[C@@H]31)OC2=O
T/C (endpoint: mean tumor weight, dose: 2.0 mg/kg/injection, schedule: Q01DX011 (ip), vehicle: saline, higher = larger tumour): 171 % of control | T/C (endpoint: mean tumor weight, dose: 4.0 mg/kg/injection, schedule: Q01DX011 (ip), vehicle: saline, higher = larger tumour): 118 % of control | T/C (endpoint: mean tumor weight, dose: 8.0 mg/kg/injection, schedule: Q01DX011 (ip), vehicle: saline, higher = larger tumour): 107 % of control

CC(=O)Nc1ccc(Cl)c(Cl)c1
T/C (endpoint: median survival time, dose: 50.0 mg/kg/injection, schedule: Q01DX009 (ip), vehicle: Klucel (hydroxypropylcellulose) (HPC), higher = longer survival): 120 % of control and 124 % of control | T/C (endpoint: median survival time, dose: 100.0 mg/kg/injection, schedule: Q01DX009 (ip), vehicle: Klucel (hydroxypropylcellulose) (HPC), higher = longer survival): 106 % of control | T/C (endpoint: median survival time, dose: 200.0 mg/kg/injection, schedule: Q01DX009 (ip), vehicle: Klucel (hydroxypropylcellulose) (HPC), higher = longer survival): 98 % of control

CC(C)CCCCCCCCCCCCC(=O)NCC(=O)NC1C(O)C(O)C(Nc2ncnc3nc[nH]c23)OC1C(O)CO (centres undefined)
T/C (endpoint: mean tumor weight, dose: 0.25 mg/kg/injection, schedule: Q01DX011 (ip), vehicle: saline, higher = larger tumour): 69 % of control | T/C (endpoint: mean tumor weight, dose: 0.5 mg/kg/injection, schedule: Q01DX011 (ip), vehicle: saline, higher = larger tumour): 54 % of control | T/C (endpoint: mean tumor weight, dose: 1.0 mg/kg/injection, schedule: Q01DX011 (ip), vehicle: saline, higher = larger tumour): 100 % of control

CC1C/C=C2\CSC(NC(=O)/C3=C\N(C/C=C/C=C/C(O)CC(O)CC(=O)N3)C2=O)C(=O)O1 (centres undefined)
T/C (endpoint: mean tumor weight, dose: 10.6 mg/kg/injection, schedule: Q01DX011 (ip), vehicle: carboxymethylcellulose (CMC), higher = larger tumour): 88 % of control | T/C (endpoint: mean tumor weight, dose: 16.0 mg/kg/injection, schedule: Q01DX011 (ip), vehicle: carboxymethylcellulose (CMC), higher = larger tumour): 169 % of control | T/C (endpoint: mean tumor weight, dose: 24.0 mg/kg/injection, schedule: Q01DX011 (ip), vehicle: carboxymethylcellulose (CMC), higher = larger tumour): 68 % of control | T/C (endpoint: mean tumor weight, dose: 36.0 mg/kg/injection, schedule: Q01DX011 (ip), vehicle: carboxymethylcellulose (CMC), higher = larger tumour): 114 % of control

C[C@H]1C[C@H]2[C@@H]3CC[C@](O)(C(=O)CO)[C@@]3(C)C[C@H](O)[C@]2(F)[C@@]2(C)C=CC(=O)C=C12
T/C (endpoint: mean tumor weight, dose: 15.0 mg/kg/injection, schedule: Q01DX011 (sc), vehicle: steriod suspending solution, higher = larger tumour): 44 % of control | T/C (endpoint: mean tumor weight, dose: 30.0 mg/kg/injection, schedule: Q01DX011 (sc), vehicle: steriod suspending solution, higher = larger tumour): 43 % of control | T/C (endpoint: mean tumor weight, dose: 90.0 mg/kg/injection, schedule: Q01DX011 (sc), vehicle: steriod suspending solution, higher = larger tumour): 12 % of control

C=C(C)[C@@H]1CC[C@]2(CO)CC[C@]3(C)[C@H](CC[C@@H]4[C@@]5(C)CC[C@H](O)C(C)(C)[C@@H]5CC[C@]43C)[C@@H]12
T/C (endpoint: mean tumor weight, dose: 100.0 mg/kg/injection, schedule: Q01DX011 (ip), vehicle: carboxymethylcellulose (CMC), higher = larger tumour): 101 % of control | T/C (endpoint: mean tumor weight, dose: 200.0 mg/kg/injection, schedule: Q01DX011 (ip), vehicle: carboxymethylcellulose (CMC), higher = larger tumour): 68 % of control

ClCCCN1CCCCC1CCl (centres undefined)
T/C (endpoint: median survival time, dose: 3.12 mg/kg/injection, schedule: Q04DX003 (ip), vehicle: saline, higher = longer survival): 96 % of control | T/C (endpoint: median survival time, dose: 6.25 mg/kg/injection, schedule: Q04DX003 (ip), vehicle: saline, higher = longer survival): 113 % of control | T/C (endpoint: median survival time, dose: 12.5 mg/kg/injection, schedule: Q04DX003 (ip), vehicle: saline, higher = longer survival): 104 % of control

Cc1cc(N(CCCl)CCCl)ccc1N=Nc1ccccc1C(=O)O
T/C (endpoint: median survival time, dose: 2.0 mg/kg/injection, schedule: Q01DX009 (ip), vehicle: saline with Tween-80, higher = longer survival): 101 % of control | T/C (endpoint: median survival time, dose: 4.0 mg/kg/injection, schedule: Q01DX009 (ip), vehicle: saline with Tween-80, higher = longer survival): 105 % of control and 111 % of control | T/C (endpoint: median survival time, dose: 8.0 mg/kg/injection, schedule: Q01DX009 (ip), vehicle: saline with Tween-80, higher = longer survival): 96 % of control and 104 % of control | T/C (endpoint: median survival time, dose: 10.0 mg/kg/injection, schedule: Q01DX001 (ip), vehicle: saline with Tween-80, higher = longer survival): 107 % of control | T/C (endpoint: median survival time, dose: 20.0 mg/kg/injection, schedule: Q01DX001 (ip), vehicle: saline with Tween-80, higher = longer survival): 92 % of control | T/C (endpoint: median survival time, dose: 32.0 mg/kg/injection, schedule: Q04DX003 (ip), vehicle: saline with Tween-80, higher = longer survival): 116 % of control

Cc1ccc(N=NN(C)C)cc1
T/C (endpoint: mean tumor weight, dose: 15.0 mg/kg/injection, schedule: Q01DX011 (ip), vehicle: other, higher = larger tumour): 67 % of control | T/C (endpoint: mean tumor weight, dose: 60.0 mg/kg/injection, schedule: Q01DX011 (ip), vehicle: other, higher = larger tumour): 57 % of control
